Assay [1] deals with brown rat VKORC1 strain L128Q. Set-up: key: X = Strain exhibits a practical resistance to:
The settings on record: cited from earlier work.

Assay [2] relates to brown rat VKORC1 strain Y139S. Set-up: key to Practical resistance of the strain: X = Strain exhibits a practical resistance to:
Particulars: cited from earlier work; for Tolerance / practical resistance (in words): strain Y139S (Wales); for Practical resistance of the strain: strain Y139S.

For assay [3], the system named is brown rat VKORC1 strain L120Q Berkshire. Set-up: key: X = Strain exhibits a practical resistance to:
The settings on record: cited from earlier work.

Assay [4] concerns brown rat (Rattus norvegicus) strain Y139C. The settings on record: BCR resistance test; cited from earlier work.
Assay [5] concerns brown rat (Rattus norvegicus) strain Y139S. The settings on record: determined on the basis of LD50; cited from earlier work.
Assay [6] deals with brown rat (Rattus norvegicus) strain L120Q Hampshire. The settings on record: BCR resistance test; cited from earlier work.
The test system of assay [7] is resistant rat strain "Westphalia" (VKORC1 Y139C). Nature of the assay: Laboratory feeding tests with single anticoagulants. The format is in vivo. The settings on record: feed baits with one active ingredient. From the text:
The resistant rat strain “Westphalia”, characterized by the VKORC1 polymorphism Y139C, is resistant to the second-generation anticoagulants bromadiolone and difenacoum, and also to the first-generation active ingredients. Feed baits containing one of these active ingredients in the authorized concentration are not effective against animals of this strain.

In assay [8] the test system is brown rat (Rattus norvegicus) strain Y139F. Particulars: BCR resistance test; cited from earlier work.
The test system of assay [9] is brown rat VKORC1 strain Y139F. Set-up: key: X = Strain exhibits a practical resistance to:
Particulars: cited from earlier work.

Assay [10] relates to brown rat VKORC1 strain Y139C. Set-up: key to Practical resistance of the strain: X = Strain exhibits a practical resistance to:
Particulars: cited from earlier work; for Sensitivity of animals with VKORC1 Tyr139Cys (in words): Y139C brown rats and house mice, difenacoum in rats only; for Practical resistance of the strain / Resistance in laboratory and field experiments (in words): strain Y139C.

In assay [11] the test system is brown rats of the resistant strain Y139C. Description: Feeding experiment with brown rats of the resistant strain Y139C (Example 1). The format is in vivo, brown rat. Particulars: for Mortality (in words): resistant rats. As to the method: A cholecalciferol concentration of 100 mg/kg is enough to make it possible to achieve mortality rates of up to 100% (see the examples).
[…] received feed baits, as described below, over a period of 4 days. Consumption and mortality were determined afterwards. One group (6 rats, Group 1) was fed a feed bait consisting of coumatetralyl (375 mg/kg) and cholecalciferol (100 mg/kg). The other group (Group 2) was fed coumatetralyl on its own (375 mg/kg). All animals consumed the feed baits except for one animal from Group 2. Consumption was highest during the first 24 hours. On the third and fourth day, there was only little consumption. […] Two males each consumed approximately 47 mg/kg coumatetralyl and 12.5 mg/kg cholecalciferol (based on the body weight). The females consumed from 50 to 79 mg/kg coumatetralyl and from 13 to 21 mg/kg cholecalciferol (based in each case on the body weight). In Group 2, no mortality was observed, although the animals consumed 94 mg/kg coumatetralyl (mean value based on the body weight).

The subject of assay [12] is rats caught on the farm (strain Y139C area). Nature of the assay: Blood coagulation test with coumatetralyl on rats caught on the farm. The format is in vivo, rat. The settings on record: blood coagulation test before control. An excerpt:
The term “resistance(s)” in the context of the invention refers to “practical resistance”, characterized in that the rodenticide in question no longer achieves sufficient biological efficacy even with proper use and good acceptance of the bait by the rodents (see also Greaves—1994, Buckle A. P. and Smith R. H. eds. “Rodent Pests and their Control”, CABI, Wallingford, Oxon, UK, pages 197-217). A person skilled in the art can make a clear and unambiguous assessment in accordance with this definition as to whether a practical resistance is present or not. In general, the degree of “resistance” can be described by specifying a resistance factor. The resistance factor (RF) is usually calculated on the basis of the lethal dose (LD50) or of the effective dose (ED50). […] LD50 and ED50 are each determined experimentally for each strain. […] Until the 1980s, RFs were determined on the basis of the LD50. This method was later replaced by blood coagulation tests (BCR resistance tests), by means of which the ED50 can be determined more accurately (Prescott et al. 2007: A standardised BCR-resistance test for all anticoagulant rodenticides. Int. J. Pest Mgt. 53 (4), 265-272). Therefore, it is preferred according to the invention that RF be calculated via the quotient formed from the ED50 of the resistant strain and of a sensitive strain considered to be the reference. […]

Molecules are shown by their SMILES.

On to `O=c1oc2ccccc2c(O)c1C(CC(O)c1ccc(-c2ccc(Br)cc2)cc1)c1ccccc1` (stereo not drawn) [bromadiolone], for which the “Practical resistance of the strain” value in assay [1], in [3], in assay [9] and in assay [10] was “X” each time. The “Tolerance / practical resistance (in words)” value in assay [2] is “no practical resistance”. Further, the “Resistance factor (RF) for bromadiolone” value in assay [4] is recorded as 15-17; in [5], 2.7-6.9; in [6], 10-14; in assay [8], 7-9. The Mortality result in assay [7] is recorded as “no mortality”. Further, the “Sensitivity of animals with VKORC1 Tyr139Cys (in words)” value (“Sensitivity of animals” for short) in assay [10] is “virtually completely insensitive”. Besides, the “Resistance in laboratory and field experiments (in words)” value in assay [10] is “resistant”.
With `O=C1c2ccccc2C(=O)C1C(=O)C(c1ccccc1)c1ccc(Cl)cc1` (stereo not drawn) [chlorophacinone, (1′-p-chlorophenyl-1′-phenyl)-2-acetylindane-1,3-dione], the “Practical resistance of the strain” value in assay [1], in assay [2], in [3], in assay [9] and in assay [10] was “X” in each case.
In the case of `C=C1CC[C@H](O)C/C1=C/C=C1\CCC[C@]2(C)[C@@H]([C@H](C)CCCC(C)C)CC[C@@H]12` [cholecalciferol], the “Mortality (in words)” value in assay [11] (cholecalciferol by itself at 100 mg/kg) is on record as “does not cause mortality”.
Regarding `O=c1oc2ccccc2c(O)c1C1CCCc2ccccc21` (stereo not drawn) [coumatetralyl, 3-(1′,2′,3′,4′-tetrahydro-1′-naphthyl)-4-hydroxycoumarin], the “Practical resistance of the strain” value in [1], in [2], in assay [3], in assay [9] and in assay [10] was “X” each time. Also, the “Mortality (in words)” value in [11] (coumatetralyl by itself) is recorded as “does not cause mortality”. Also, the Mortality entry in [11] (feed baits over 4 days, 6 rats of strain Y139C per group) is “no mortality”; in assay [7], “no mortality”. Moreover, in assay [12], the “Share of rats on the farm resistant for coumatetralyl” value is listed as “approximately 46%”. Also, the “Sensitivity of animals” value in [10] is “virtually completely insensitive”.
On to `O=c1oc2ccccc2c(O)c1C1CC(c2ccc(-c3ccccc3)cc2)Cc2ccccc21` (stereo not drawn) [difenacoum, 3-(3′-paradiphenylyl-1′,2′,3′,4′-tetrahydro-1′-naphthyl)-4-hydroxycoumarin], for which the “Practical resistance of the strain” value in assay [3] is recorded as “X”. In [10], the “Sensitivity of animals” value is “virtually completely insensitive”; the “Practical resistance of the strain” value is recorded as “X”; the “Resistance in laboratory and field experiments (in words)” value was “resistant”.
On to `CC(=O)CC(c1ccccc1)c1c(O)c2ccccc2oc1=O` (stereo not drawn) [warfarin, (1-phenyl-2-acetyl)-3-ethyl-4-hydroxycoumarin], for which the “Practical resistance of the strain” value in [1], in assay [2], in [3], in assay [9] and in [10] was “X” throughout. Moreover, the “Tolerance / practical resistance (in words)” value in assay [2] is “somewhat more tolerant”. Also, in [10], the “Sensitivity of animals” value is recorded as “virtually completely insensitive”.

These data come from patent US20180027813A1, “Use of an agent to control resistant rodents” (priority 2015, published 2018).
